Assay results from ChEMBL document CHEMBL1201862, “PubChem BioAssay data set” (2004).
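Values below derive from 48-hour exposures of cells grown in 96-well plates, with endpoints linearly interpolated between the two concentrations bracketing the appropriate inhibition level. GI50 = concentration required for 50% inhibition of growth.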 Activity calls are given as the source filed them. Rule as the data show it: active = GI50 up to about 1.1 µM and inactive = higher.

Assays:
Experiment in all cases: inhibition of tumour cell growth, NCI panel, 48 h
[1] = system: KM-20L2
[2] = system: IGROV-1
[3] = system: ACHN
[4] = system: OVCAR-4
[5] = system: UACC-257
[6] = system: NCI-H460
[7] = system: COLO 205
[8] = system: TK-10
[9] = system: XF498
[10] = system: SK-MEL-28
[11] = system: SF-295
[12] = system: RPMI-8226
[13] = system: SNB-75
[14] = system: SK-MEL-5
[15] = system: DMS-114
[16] = system: 786-0
[17] = system: M14
[18] = system: SR
[19] = system: HOP-18
[20] = system: OVCAR-8
[21] = system: LXFL 529
[22] = system: Malme-3M
[23] = system: HT-29
[24] = system: SK-OV-3
[25] = system: LOX IMVI
[26] = system: CCRF-CEM
[27] = system: NCI-H226
[28] = system: OVCAR-5
[29] = system: HCT-116
[30] = system: A498
[31] = system: KM12
[32] = system: NCI-H23
[33] = system: HOP-62
[34] = system: A549
[35] = system: SN12C
[36] = system: NCI-H522
[37] = system: SNB-19
[38] = system: RXF 393
[39] = system: EKVX
[40] = system: OVCAR-3
[41] = system: HCC 2998
[42] = system: MOLT-4
[43] = system: UACC-62
[44] = system: HCT-15
[45] = system: UO-31
[46] = system: SF-539
[47] = system: K562
[48] = system: U-251
[49] = system: SW-620
[50] = system: M19-MEL
[51] = system: HL-60
[52] = system: DMS-273
[53] = system: CAKI-1
[54] = system: HOP-92
[55] = system: SNB-78
[56] = system: SK-MEL-2
[57] = system: SF-268
[58] = system: DLD-1

O=C1CC[C@@H](S(=O)(=O)c2ccccc2)[C@@H](/C=C/c2ccccc2)O1
GI50 [1]: > 100 µM (inactive) | GI50 [2]: > 100 µM (inactive) | GI50 [3]: > 100 µM (inactive) | GI50 [4]: > 100 µM (inactive) | GI50 [5]: > 100 µM (inactive) | GI50 [6]: > 100 µM (inactive) | GI50 [7]: > 100 µM (inactive) | GI50 [8]: > 100 µM (inactive) | GI50 [9]: < 0.01 µM (active) | GI50 [10]: > 100 µM (inactive) | GI50 [11]: > 100 µM (inactive) | GI50 [12]: > 100 µM (inactive) | GI50 [13]: > 100 µM (inactive) | GI50 [14]: > 100 µM (inactive) | GI50 [15]: > 100 µM (inactive) | GI50 [16]: > 100 µM (inactive) | GI50 [17]: > 100 µM (inactive) | GI50 [18]: > 100 µM (inactive) | GI50 [19]: > 100 µM (inactive) | GI50 [20]: > 100 µM (inactive) | GI50 [21]: > 100 µM (inactive) | GI50 [22]: > 100 µM (inactive) | GI50 [23]: > 100 µM (inactive) | GI50 [24]: > 100 µM (inactive) | GI50 [25]: > 100 µM (inactive) | GI50 [26]: > 100 µM (inactive) | GI50 [27]: > 100 µM (inactive) | GI50 [28]: > 100 µM (inactive) | GI50 [29]: > 100 µM (inactive) | GI50 [30]: > 100 µM (inactive) | GI50 [31]: > 100 µM (inactive) | GI50 [32]: > 100 µM (inactive) | GI50 [33]: > 100 µM (inactive) | GI50 [34]: > 100 µM (inactive) | GI50 [35]: > 100 µM (inactive) | GI50 [36]: > 100 µM (inactive) | GI50 [37]: > 100 µM (inactive) | GI50 [38]: > 100 µM (inactive) | GI50 [39]: > 100 µM (inactive) | GI50 [40]: > 100 µM (inactive) | GI50 [41]: > 100 µM (inactive) | GI50 [42]: > 100 µM (inactive) | GI50 [43]: > 100 µM (inactive) | GI50 [44]: > 100 µM | GI50 [45]: > 100 µM (inactive) | GI50 [46]: > 100 µM (inactive) | GI50 [47]: > 100 µM (inactive) | GI50 [48]: > 100 µM (inactive) | GI50 [49]: > 100 µM (inactive) | GI50 [50]: > 100 µM (inactive) | GI50 [51]: > 100 µM (inactive)

O=C1NC2C3CC(OCc4ccccc4)(OCc4ccccc4)C2OC3O1 (stereo not drawn)
GI50 [2]: > 50 µM (inactive) | GI50 [4]: < 0.005 µM (active) | GI50 [5]: 24.8 µM (inactive) | GI50 [52]: > 50 µM (inactive) | GI50 [53]: > 50 µM (inactive) | GI50 [7]: > 50 µM (inactive) | GI50 [9]: > 50 µM (inactive) | GI50 [10]: > 50 µM (inactive) | GI50 [11]: > 50 µM (inactive) | GI50 [12]: > 50 µM (inactive) | GI50 [54]: > 50 µM (inactive) | GI50 [13]: 48.6 µM (inactive) | GI50 [14]: > 50 µM (inactive) | GI50 [15]: > 50 µM (inactive) | GI50 [16]: > 50 µM (inactive) | GI50 [17]: > 50 µM (inactive) | GI50 [19]: > 50 µM (inactive) | GI50 [21]: < 0.005 µM (active) | GI50 [55]: < 0.005 µM (active) | GI50 [22]: > 50 µM (inactive) | GI50 [23]: > 50 µM (inactive) | GI50 [24]: > 50 µM (inactive) | GI50 [25]: > 50 µM (inactive) | GI50 [26]: > 50 µM (inactive) | GI50 [27]: > 50 µM (inactive) | GI50 [28]: > 50 µM (inactive) | GI50 [29]: > 50 µM (inactive) | GI50 [30]: > 50 µM (inactive) | GI50 [31]: > 50 µM (inactive) | GI50 [32]: > 50 µM (inactive) | GI50 [33]: > 50 µM (inactive) | GI50 [34]: > 50 µM (inactive) | GI50 [35]: > 50 µM (inactive) | GI50 [40]: > 50 µM (inactive) | GI50 [56]: > 50 µM (inactive) | GI50 [41]: > 50 µM (inactive) | GI50 [57]: > 50 µM (inactive) | GI50 [42]: > 50 µM (inactive) | GI50 [43]: > 50 µM (inactive) | GI50 [58]: > 50 µM (inactive) | GI50 [44]: > 50 µM | GI50 [45]: > 50 µM (inactive) | GI50 [46]: > 50 µM (inactive) | GI50 [47]: > 50 µM (inactive) | GI50 [49]: > 50 µM (inactive) | GI50 [50]: > 50 µM (inactive) | GI50 [51]: > 50 µM (inactive)
